The supplement of paper PMC10307832

Key:
Assay in all cases: relative viability (nuclei count vs DMSO), 5 days (fraction); higher = more cells survive
[1] = test system: HCC-15
How it was run: (§1)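 After 5 days of treatment, lung cancer cells in 1536-well plates were fixed and stained in a single step (final 0.05% Triton X-100, 1% formaldehyde, 1 ug/ml Hoechst) and their nuclei counted on 4× images. Treatment had been applied by pin tool the day after seeding as one drug alone or as a fixed anchor-drug dose with five library-drug doses (not always all listed) in √10 steps. Relative viability is the nuclei count of treated wells divided by that of vehicle wells, and values are medians of duplicate plates.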

[2] = test system: SK-LU-1
How it was run: as §1

[3] = test system: NCI-H1993
How it was run: as §1

[4] = test system: NCI-H1915
How it was run: as §1

[5] = test system: PC-3 [JPC-3]
How it was run: as §1

[6] = test system: NCI-H3122
How it was run: as §1

[7] = test system: NCI-H596
How it was run: as §1

[8] = test system: EKVX
How it was run: as §1

[9] = test system: RERF-LC-KJ
How it was run: as §1

[10] = test system: HCC-827
How it was run: as §1

[11] = test system: NCI-H1755
How it was run: as §1

[12] = test system: COR-L 105
How it was run: as §1

[13] = test system: LC-2-ad
How it was run: as §1

[14] = test system: COR-L23
How it was run: as §1

[15] = test system: LCLC-97TM1
How it was run: as §1

[16] = test system: HCC-366
How it was run: as §1

[17] = test system: NCI-H1944
How it was run: as §1

[18] = test system: SK-MES-1
How it was run: as §1

[19] = test system: BEN
How it was run: as §1

[20] = test system: LU99A
How it was run: as §1

COCC1(CO)C(=O)C2CCN1CC2 (stereo unspecified) [PRIMA-1MET] + CS(=O)(=O)N1CCN(Cc2cc3nc(-c4cccc5[nH]ncc45)nc(N4CCOCC4)c3s2)CC1 [Pictilisib] (partner 1 µM)
relative viability ([1]; first compound 0.2 µM): 0.511
relative viability ([1]; first compound 0.6325 µM): 0.582
relative viability ([1]; first compound 2 µM): 0.568
relative viability ([1]; first compound 6.325 µM): 0.638
relative viability ([1]; first compound 20 µM): 0.618
relative viability ([2]; first compound 0.2 µM): 0.592
relative viability ([2]; first compound 0.6325 µM): 0.549
relative viability ([2]; first compound 2 µM): 0.357
relative viability ([2]; first compound 6.325 µM): 0.697
relative viability ([2]; first compound 20 µM): 0.142
relative viability ([3]; first compound 0.2 µM): 0.949
relative viability ([3]; first compound 0.6325 µM): 0.797
relative viability ([3]; first compound 2 µM): 0.732
relative viability ([3]; first compound 6.325 µM): 0.873
relative viability ([3]; first compound 20 µM): 0.854
relative viability ([4]; first compound 0.2 µM): 0.712
relative viability ([4]; first compound 0.6325 µM): 0.785
relative viability ([4]; first compound 2 µM): 0.625
relative viability ([4]; first compound 6.325 µM): 0.705
relative viability ([4]; first compound 20 µM): 0.932
relative viability ([5]; first compound 0.2 µM): 0.681
relative viability ([5]; first compound 0.6325 µM): 0.653
relative viability ([5]; first compound 2 µM): 0.652
relative viability ([5]; first compound 6.325 µM): 0.777
relative viability ([5]; first compound 20 µM): 0.688
relative viability ([6]; first compound 0.2 µM): 0.288
relative viability ([6]; first compound 0.6325 µM): 0.647
relative viability ([6]; first compound 2 µM): 0.659
relative viability ([6]; first compound 6.325 µM): 0.429
relative viability ([6]; first compound 20 µM): 0.52
relative viability ([7]; first compound 0.2 µM): 0.406
relative viability ([7]; first compound 0.6325 µM): 0.389
relative viability ([7]; first compound 2 µM): 0.335
relative viability ([7]; first compound 6.325 µM): 0.379
relative viability ([7]; first compound 20 µM): 0.368
relative viability ([8]; first compound 0.2 µM): 0.475
relative viability ([8]; first compound 0.6325 µM): 0.458
relative viability ([8]; first compound 2 µM): 0.328
relative viability ([8]; first compound 6.325 µM): 0.489
relative viability ([8]; first compound 20 µM): 0.356
relative viability ([9]; first compound 0.2 µM): 0.538
relative viability ([9]; first compound 0.6325 µM): 0.595
relative viability ([9]; first compound 2 µM): 0.64
relative viability ([9]; first compound 6.325 µM): 0.623
relative viability ([9]; first compound 20 µM): 0.624
relative viability ([10]; first compound 0.2 µM): 1.33
relative viability ([10]; first compound 0.6325 µM): 0.907
relative viability ([10]; first compound 2 µM): 0.863
relative viability ([10]; first compound 6.325 µM): 1.08
relative viability ([10]; first compound 20 µM): 0.81
relative viability ([11]; first compound 0.2 µM): 0.187
relative viability ([11]; first compound 0.6325 µM): 0.421
relative viability ([11]; first compound 2 µM): 0.206
relative viability ([11]; first compound 6.325 µM): 0.391
relative viability ([11]; first compound 20 µM): 0.3
relative viability ([12]; first compound 0.2 µM): 0.387
relative viability ([12]; first compound 0.6325 µM): 0.346
relative viability ([12]; first compound 2 µM): 0.324
relative viability ([12]; first compound 6.325 µM): 0.245
relative viability ([12]; first compound 20 µM): 0.2
relative viability ([13]; first compound 0.2 µM): 0.933
relative viability ([13]; first compound 0.6325 µM): 0.445
relative viability ([13]; first compound 2 µM): 0.321
relative viability ([13]; first compound 6.325 µM): 0.468
relative viability ([13]; first compound 20 µM): 0.421
relative viability ([14]; first compound 0.2 µM): 0.77
relative viability ([14]; first compound 0.6325 µM): 0.76
relative viability ([14]; first compound 2 µM): 0.765
relative viability ([14]; first compound 6.325 µM): 0.786
relative viability ([14]; first compound 20 µM): 0.0196
relative viability ([15]; first compound 0.2 µM): 0.127
relative viability ([15]; first compound 2 µM): 0.234
relative viability ([15]; first compound 6.325 µM): 0.135
relative viability ([15]; first compound 20 µM): 0.117
relative viability ([16]; first compound 0.2 µM): 0.204
relative viability ([16]; first compound 0.6325 µM): 0.118
relative viability ([16]; first compound 6.325 µM): 0.123
relative viability ([16]; first compound 20 µM): 0.0846
relative viability ([17]; first compound 0.2 µM): 0.332
relative viability ([17]; first compound 0.6325 µM): 0.324
relative viability ([17]; first compound 6.325 µM): 0.328
relative viability ([17]; first compound 20 µM): 0.363
relative viability ([18]; first compound 0.2 µM): 0.449
relative viability ([18]; first compound 0.6325 µM): 0.384
relative viability ([18]; first compound 2 µM): 0.359
relative viability ([18]; first compound 6.325 µM): 0.381
relative viability ([18]; first compound 20 µM): 0.349
relative viability ([19]; first compound 0.2 µM): 0.608
relative viability ([19]; first compound 0.6325 µM): 0.514
relative viability ([19]; first compound 6.325 µM): 0.521
relative viability ([19]; first compound 20 µM): 0.464
relative viability ([20]; first compound 0.2 µM): 0.414
relative viability ([20]; first compound 0.6325 µM): 0.323
relative viability ([20]; first compound 2 µM): 0.386
relative viability ([20]; first compound 6.325 µM): 0.308
relative viability ([20]; first compound 20 µM): 0.154
